The values below come from patent US12545672B2, “Antibiotic compounds, methods of manufacturing the same, pharmaceutical compositions containing the same and uses thereof” (Debiopharm International S.A., priority 2018, dated 2026).

Assay [1] relates to Neisseria gonorrhoeae. In words: MIC50 by CLSI agar dilution on a panel of N. gonorrhoeae clinical isolates. To be noted: Neisseria gonorrhoeae. The format is cell-based. The protocol:
MIC50: MICs were determined in accordance with the appropriate Clinical and Laboratory Standards Institute (CLSI) methodology by the agar dilution susceptbility testing method in GC agar base.

In assay [2] the target is Neisseria gonorrhoeae FabI (Neisseria gonorrhoeae, UniProt A0ACH0F547). In words: Neisseria gonorrhoeae FabI inhibition assay (NADH consumption).
Setting [3] is: agar dilution, GC agar base, minimum of 15 clinical isolates, read-out: MIC50.

Like-named read-outs stand apart in the source and are kept apart here.

Neisseria gonorrhoeae FabI, sequence (A0ACH0F547 1-261): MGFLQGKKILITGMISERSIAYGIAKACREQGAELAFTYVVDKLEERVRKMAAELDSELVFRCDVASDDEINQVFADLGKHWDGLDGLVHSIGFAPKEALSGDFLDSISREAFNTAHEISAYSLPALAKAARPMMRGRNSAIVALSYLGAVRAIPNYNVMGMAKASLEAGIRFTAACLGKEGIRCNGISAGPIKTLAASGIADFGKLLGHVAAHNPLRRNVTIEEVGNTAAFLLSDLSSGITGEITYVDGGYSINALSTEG

For `Cc1c(CN(C)C(=O)/C=C/c2cnc3c(c2)NCC(=O)N3)oc2ccccc12` [Compound 10, (E)-N-methyl-N-((3-methylbenzofuran-2-yl)methyl)-3-(3-oxo-1,2,3,4-tetrahydropyrido[2,3-b]pyrazin-7-yl)acrylamide], the MIC50 in assay [1] (setting [3]) was less than 1 µg/mL. In addition, the 50% inhibitory concentration (IC50) in assay [2] is less than 10 nM.

For `Cc1oc2c(N)cccc2c1CN(C)C(=O)/C=C/c1cnc2c(c1)CCCC(=O)N2` [Compound 168, (E)-N-((7-amino-2-methylbenzofuran-3-yl)methyl)-N-methyl-3-(8-oxo-6,7,8,9-tetrahydro-5H-pyrido[2,3-b]azepin-3-yl)acrylamide], the MIC50 in assay [1] (setting [3]) was less than 1 µg/mL. Besides, the IC50 in assay [2] is less than 10 nM.

Regarding `Cc1oc2ccccc2c1CN(C)C(=O)/C=C/c1cnc2c(c1)NC[C@](C)(CO)C(=O)N2` (single isomer, unassigned) [Compound 41], in assay [1] (setting [3]), the MIC50 is less than 1 µg/mL. This compound showed an IC50 in assay [2] of less than 10 nM.

For `Cc1c(CN(C)C(=O)/C=C/c2cnc3c(c2)NC[C@@H](O)C(=O)N3)oc2ccccc12` [Compound 229, (R,E)-3-(3-Hydroxy-4-oxo-2,3,4,5-tetrahydro-1H-pyrido[2,3-b][1,4]diazepin-8-yl)-N-methyl-N-((3-methylbenzofuran-2-yl)methyl)acrylamide], the MIC50 in assay [1] (setting [3]) was less than 1 µg/mL. Further, the IC50 in assay [2] was less than 10 nM.

Regarding `Cc1c(CN(C)C(=O)/C=C/c2cnc3c(c2)N[C@H](C)[C@H](O)C(=O)N3)oc2ccccc12` (single isomer, unassigned) [Compound 150], the MIC50 in assay [1] (setting [3]) was less than 1 µg/mL. The compound further registered a half-maximal inhibitory concentration (IC50) in assay [2] of less than 10 nM.

Take `Cc1c(CN(C)C(=O)/C=C/c2cnc3c(c2)N[C@@](C)(CO)C(=O)N3)oc2ccccc12` (single isomer, unassigned) [Compound 208]: the MIC50 in assay [1] (setting [3]) is less than 1 µg/mL. In assay [2], this compound displayed an IC50 of less than 10 nM.

On to `Cc1c(CN(C)C(=O)/C=C/c2cnc3c(c2)N[C@H](C)CC(=O)N3)oc2ccccc12` [Compound 214, (E)-N-methyl-N-[(3-methylbenzofuran-2-yl)methyl]-3-[(2R)-2-methyl-4-oxo-1,2,3,5-tetrahydropyrido[2,3-b][1,4]diazepin-8-yl]prop-2-enamide], for which, in assay [1] (setting [3]), the MIC50 is less than 1 µg/mL. The same compound gave a concentration for half-maximal inhibition (IC50) in assay [2] of less than 10 nM.

For the compound `Cc1oc2c(Oc3cncs3)cccc2c1CN(C)C(=O)/C=C/c1cnc2c(c1)NCCC(=O)N2` [Compound 101, (E)-N-Methyl-N-((2-methyl-7-(thiazol-5-yloxy)benzofuran-3-yl)methyl)-3-(4-oxo-2,3,4,5-tetrahydro-1H-pyrido[2,3-b][1,4]diazepin-8-yl)acrylamide], in assay [1] (setting [3]), the MIC50 is less than 1 µg/mL. The same compound showed an IC50 in assay [2] of less than 10 nM.

Compound `Cc1oc2c(Oc3ccc(C#N)cc3)cccc2c1CN(C)C(=O)/C=C/c1cnc2c(c1)NC[C@@](C)(O)C(=O)N2` [Compound 152, (R,E)-N-((7-(4-cyanophenoxy)-2-methylbenzofuran-3-yl)methyl)-3-(3-hydroxy-3-methyl-4-oxo-2,3,4,5-tetrahydro-1H-pyrido[2,3-b][1,4]diazepin-8-yl)-N-methylacrylamide] yielded an MIC50 in assay [1] of less than 1 µg/mL. For the same compound, the IC50 in assay [2] was less than 10 nM.

With `Cc1oc2ccccc2c1CN(C)C(=O)/C=C/c1cnc2c(c1)N[C@H](C)[C@H](O)C(=O)N2` (single isomer, unassigned) [Compound 151], the MIC50 in assay [1] (setting [3]) is less than 1 µg/mL. This compound came in with an IC50 in assay [2] of less than 10 nM.

`C[C@@]1(O)CNc2cc(/C=C/C(=O)N3C[C@H]4CC(c5ccc(Oc6ccccc6)cc5)=C[C@H]4C3)cnc2NC1=O` [Compound 159, (R)-3-hydroxy-3-methyl-8-((E)-3-oxo-3-((3aS,6aR)-5-(4-phenoxyphenyl)-3,3a,4,6a-tetrahydrocyclopenta[c]pyrrol-2(1H)-yl)prop-1-en-1-yl)-1,2,3,5-tetrahydro-4H-pyrido[2,3-b][1,4]diazepin-4-one]: the MIC50 in assay [1] (setting [3]) was less than 1 µg/mL. Further, the 50% inhibitory concentration (IC50) in assay [2] was less than 10 nM.

Take `N#Cc1cccc(Oc2ccc(C3=C[C@H]4CN(C(=O)/C=C/c5cnc6c(c5)NCCC(=O)N6)C[C@H]4C3)cc2)c1` [Compound 123, 3-(4-((3rS,6rR)-2-((E)-3-(4-Oxo-2,3,4,5-tetrahydro-1H-pyrido[2,3-b][1,4]diazepin-8-yl)acryloyl)-1,2,3,3r,4,6r-hexahydrocyclopenta[c]pyrrol-5-yl)phenoxy)benzonitrile]: in assay [1] (setting [3]), the MIC50 was less than 1 µg/mL. The compound further had a concentration for half-maximal inhibition (IC50) in assay [2] of less than 10 nM.

Turning to `Cc1c(CN(C)C(=O)/C=C/c2cnc3c(c2)NC[C@](C)(CO)C(=O)N3)oc2ccccc12` [Compound 33, (R,E)-3-(3-(hydroxymethyl)-3-methyl-4-oxo-2,3,4,5-tetrahydro-1H-pyrido[2,3-b][1,4]diazepin-8-yl)-N-methyl-N-((3-methylbenzofuran-2-yl)methyl)acrylamide], the MIC50 in assay [1] (setting [3]) is less than 1 µg/mL. Moreover, in assay [2], the IC50 is less than 10 nM.

As to `O=C1CCNc2cc(/C=C/C(=O)N3C[C@H]4CC(c5ccc(Oc6ncccn6)cc5)=C[C@H]4C3)cnc2N1` [Compound 60, 8-((E)-3-Oxo-3-((3aS,6aR)-5-(4-(pyrimidin-2-yloxy)phenyl)-3,3a,4,6a-tetrahydrocyclopenta[c]pyrrol-2(1H)-yl)prop-1-en-1-yl)-1,2,3,5-tetrahydro-4H-pyrido[2,3-b][1,4]diazepin-4-one], the MIC50 in assay [1] (setting [3]) is less than 1 µg/mL. This compound also returned an IC50 in assay [2] of less than 10 nM.

In the case of `Cc1oc2ccccc2c1CN(C)C(=O)/C=C/c1cnc2c(c1)NCCC(=O)N2` [Compound 170, (E)-N-Methyl-N-((2-methylbenzofuran-3-yl)methyl)-3-(4-oxo-2,3,4,5-tetrahydro-1H-pyrido[2,3-b][1,4]diazepin-8-yl)acrylamide], the MIC50 in assay [1] (setting [3]) is less than 1 µg/mL. Besides, in assay [2], the IC50 was less than 10 nM.

For the compound `Cc1oc2c(N)cccc2c1CN(C)C(=O)/C=C/c1cnc2c(c1)NC[C@@](C)(O)C(=O)N2` [Compound 167, (R,E)-N-((7-amino-2-methylbenzofuran-3-yl)methyl)-3-(3-hydroxy-3-methyl-4-oxo-2,3,4,5-tetrahydro-1H-pyrido[2,3-b][1,4]diazepin-8-yl)-N-methylacrylamide], the MIC50 in assay [1] (setting [3]) was less than 1 µg/mL. The IC50 in assay [2] was less than 10 nM.

As for `Cc1c(CN(C)C(=O)/C=C/c2cnc3c(c2)C=C[C@@](C)(O)C(=O)N3)oc2ccccc12` (single isomer, unassigned) [Compound 260], the MIC50 in assay [1] (setting [3]) was less than 1 µg/mL. The IC50 in assay [2] was less than 10 nM.

Turning to `Cc1c(CN(C)C(=O)/C=C/c2cnc3c(c2)NC[C@@](C)(CO)C(=O)N3)oc2ccccc12` [Compound 32, (S,E)-3-(3-(hydroxymethyl)-3-methyl-4-oxo-2,3,4,5-tetrahydro-1H-pyrido[2,3-b][1,4]diazepin-8-yl)-N-methyl-N-((3-methylbenzofuran-2-yl)methyl)acrylamide], the MIC50 in assay [1] (setting [3]) was less than 1 µg/mL. The compound further returned an IC50 in assay [2] of less than 10 nM.

As to `Cc1oc2c(Oc3ccc4c(c3)OCC4)cccc2c1CN(C)C(=O)/C=C/c1cnc2c(c1)NC[C@@](C)(O)C(=O)N2` [Compound 182, (R,E)-N-((7-((2,3-dihydrobenzofuran-6-yl)oxy)-2-methylbenzofuran-3-yl)methyl)-3-(3-hydroxy-3-methyl-4-oxo-2,3,4,5-tetrahydro-1H-pyrido[2,3-b][1,4]diazepin-8-yl)-N-methylacrylamide], the MIC50 in assay [1] (setting [3]) is less than 1 µg/mL. Moreover, the IC50 in assay [2] is less than 10 nM.

Take `Cc1oc2c(Oc3ccc4c(c3)OCC4)cccc2c1CN(C)C(=O)/C=C/c1cnc2c(c1)NC(C)(C)C(=O)N2` [Compound 164, (E)-N-((7-((2,3-dihydrobenzofuran-6-yl)oxy)-2-methylbenzofuran-3-yl)methyl)-3-(2,2-dimethyl-3-oxo-1,2,3,4-tetrahydropyrido[2,3-b]pyrazin-7-yl)-N-methylacrylamide]: the MIC50 in assay [1] (setting [3]) was less than 1 µg/mL. The same compound showed a half-inhibitory concentration (IC50) in assay [2] of less than 10 nM.

As to `Cc1oc2ccccc2c1CN(C)C(=O)/C=C/c1cnc2c(c1)NC1(CCOCC1)C(=O)N2` [Compound 64, (E)-N-Methyl-N-((2-methylbenzofuran-3-yl)methyl)-3-(3′-oxo-2,3,3′,4′,5,6-hexahydro-1′H-spiro[pyran-4,2′-pyrido[2,3-b]pyrazin]-7′-yl)acrylamide], the MIC50 in assay [1] (setting [3]) was less than 1 µg/mL. This compound showed a concentration for half-maximal inhibition (IC50) in assay [2] of less than 10 nM.

As to `Cc1c(CN(C)C(=O)/C=C/c2cnc3c(c2)N[C@H](C)[C@@](C)(O)C(=O)N3)oc2ccccc12` [Compound 207, (E)-3-(3-hydroxy-2,3-dimethyl-4-oxo-2,3,4,5-tetrahydro-1H-pyrido[2,3-b][1,4]diazepin-8-yl)-N-methyl-N-((3-methylbenzofuran-2-yl)methyl)acrylamide], in assay [1] (setting [3]), the MIC50 is less than 1 µg/mL.

With `N#Cc1ccc(Oc2ccc(C3=C[C@@H]4CN(C(=O)/C=C/c5cnc6c(c5)NCCC(=O)N6)C[C@@H]4C3)cc2)cc1` (stereo in doubt) [Compound 198, 4-(4-((3aR,6aS)-2-((E)-3-(4-oxo-2,3,4,5-tetrahydro-1H-pyrido[2,3-b][1,4]diazepin-8-yl)acryloyl)-1,2,3,3a,4,6a-hexahydrocyclopenta[c]pyrrol-5-yl)phenoxy)benzonitrile], the MIC50 in assay [1] (setting [3]) was less than 1 µg/mL. The same compound had an IC50 in assay [2] of less than 10 nM.

In the case of `Cc1oc2ccccc2c1CN(C)C(=O)/C=C/c1cnc2c(c1)NCC(C)(CO)C(=O)N2` (stereo not drawn) [Compound 39, (E)-3-(3-(Hydroxymethyl)-3-methyl-4-oxo-2,3,4,5-tetrahydro-1H-pyrido[2,3-b][1,4]diazepin-8-yl)-N-methyl-N-((2-methylbenzofuran-3-yl)methyl)acrylamide], the MIC50 in assay [1] (setting [3]) is less than 1 µg/mL. In addition, in assay [2], the IC50 was less than 10 nM.

`Cc1c(CN(C)C(=O)/C=C/c2cnc3c(c2)N[C@H](C)[C@@](C)(O)C(=O)N3)oc2ccccc12` (racemic) [Compound 207, (E)-3-(3-hydroxy-2,3-dimethyl-4-oxo-2,3,4,5-tetrahydro-1H-pyrido[2,3-b][1,4]diazepin-8-yl)-N-methyl-N-((3-methylbenzofuran-2-yl)methyl)acrylamide] gave a 50% inhibitory concentration (IC50) in assay [2] of less than 10 nM.
